Read-outs that look alike come from different tables or passages of the source.
Assays:
[1] = target: T1, human FLT3 protein (FLT3 (WT)) (Homo sapiens, UniProt P36888); experiment: FLT3 inhibition test (FLT3 enzyme inhibition, time-resolved fluorescence of substrate peptide phosphorylation); type: biochemical; conditions: read-out: FLT3 (WT) enzyme inhibition activity
T1 construct: human FLT3 protein (intracellular region, 564 to 993 aa); GST; purchased Carna Biosciences; host or cells: baculovirus expression system
T1 sequence (P36888 564-993): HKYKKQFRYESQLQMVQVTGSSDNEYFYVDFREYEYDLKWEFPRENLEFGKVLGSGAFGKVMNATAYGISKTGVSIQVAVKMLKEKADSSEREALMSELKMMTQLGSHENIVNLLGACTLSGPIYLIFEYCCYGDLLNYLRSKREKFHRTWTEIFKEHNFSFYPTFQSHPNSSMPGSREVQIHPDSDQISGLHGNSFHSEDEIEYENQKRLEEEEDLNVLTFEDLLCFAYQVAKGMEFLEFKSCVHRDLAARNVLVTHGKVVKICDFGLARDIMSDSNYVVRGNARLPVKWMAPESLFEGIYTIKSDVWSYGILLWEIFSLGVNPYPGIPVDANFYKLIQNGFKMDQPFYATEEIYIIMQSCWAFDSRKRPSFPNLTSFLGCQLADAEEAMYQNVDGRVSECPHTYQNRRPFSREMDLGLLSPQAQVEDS
Method in brief: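 Substrate peptide phosphorylation detected by time-resolved fluorescence after a 30 min kinase reaction at 25° C with 50 μM ATP (final). Beforehand, compound and FLT3 (WT, 1.2 μg) stood 15 min at 25° C in HEPES buffer pH 7.5 containing MgCl2, NaCl, BSA and DTT.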

Molm-13 cells = experiment: Leukemia cell proliferation inhibition test (ATPlite), Molm-13; type: cell-based; conditions: read-out: MOLM13 cell proliferation inhibition effect
Method in brief: (§1)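 Luminescent ATP read-out (firefly luciferase) used as a total cell count after 72 h compound exposure at 37° C, 5% CO2. Cells: 10,000/well in RPMI + 10% FBS. GI50 = 50% inhibition relative to 0.1% DMSO, from a sigmoid dose-response fit; duplicates.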

MV4-11 cells = experiment: Leukemia cell proliferation inhibition test (ATPlite), MV4-11; type: cell-based; conditions: read-out: MV4-11 cell proliferation inhibition effect
Method in brief: as §1

[2] = GST-fused human FLT3 (564 to 993 aa), ATP 50 μM
[3] = Homo sapiens, MOLM-13, 72 h, Molm-13, 72 hours culture, ATPlite, GI50 per method
[4] = Homo sapiens, MV4-11, 72 h, MV4-11, 72 hours culture, ATPlite, GI50 per method
[5] = Homo sapiens, MOLM-13, MOLM13 cell
[6] = Homo sapiens, MV4-11, MV4-11 cell

| SMILES | IC50 [1, 2] | IC50 (Molm-13 cells; [3]) | IC50 (MV4-11 cells; [4]) | IC50 ([1]; FLT3 (WT)) | IC50 (Molm-13 cells; [5]) | IC50 (MV4-11 cells; [6]) | IC50 (Molm-13 cells; Molm-13, 72 hours culture, ATPlite, GI50 per method) | IC50 (MV4-11 cells; MV4-11, 72 hours culture, ATPlite, GI50 per method) |
| --- | --- | --- | --- | --- | --- | --- | --- | --- |
| CCCNc1nc(Nc2ccc(C(N)=O)cc2)ncc1C#CCCCNC(=O)CNC(=O)/C=C/CN(C)C [Compound 7-2] | < 10 nM | < 10 nM | < 10 nM | – | – | – | – | – |
| C=C(C)C(=O)N(C)[C@@H](C)C(=O)Nc1cccc(NC(=O)c2cnc(Nc3ccc(C(N)=O)cc3)nc2NCCC)c1 [Compound 3-10] | < 10 nM | 100 to 1000 nM | 100 to 1000 nM | – | – | – | – | – |
| COc1ccc(Nc2ncc(C#CCCCNC(=O)[C@H](C)N(C)C(=O)/C=C/CN(C)C)c(NCCCF)n2)cc1F [Compound 7-56, (S,E)-4-(Dimethylamino)-N-(1-((5-(2-((3-fluoro-4-methoxyphenyl)amino)-4-((3-fluoropropyl)amino)pyrimidin-5-yl)-4-pentyn-1-yl)amino)-1-oxopropan-2-yl)-N-methyl-2-butenamide] | < 10 nM | < 10 nM | < 10 nM | – | – | – | – | – |
| C=CC(=O)NCC(=O)NC1CCCC(NC(=O)c2cnc(Nc3ccc(C(N)=O)cc3)nc2NCCC)C1 (stereo not drawn) [Compound 3-2] | < 10 nM | 10 to 100 nM | 10 to 100 nM | – | – | – | – | – |
| C=CC(=O)Nc1cccc(NC(=O)c2cnc(NCCc3ccncc3)nc2NCCC)c1 [Compound 2-25] | 10 to 100 nM | 100 to 1000 nM | 100 to 1000 nM | – | – | – | – | – |
| CCCNc1nc(Nc2ccc(C#N)cc2)ncc1C#CCCCNC(=O)[C@H](CO)N(C)C(=O)/C=C/CN(C)C [Compound 7-62, (S,E)-N-(1-((5-(2-((4-Cyanophenyl)amino)-4-(propylamino)pyrimidin-5-yl)-4-pentyn-1-yl)amino)-3-hydroxy-1-oxopropan-2-yl)-4-(dimethylamino)-N-methyl-2-butenamide] | < 10 nM | < 10 nM | < 10 nM | – | – | – | – | – |
| C=CC(=O)N(C)[C@@H](C)C(=O)NCCCC#Cc1cnc(Nc2cccc(C#N)c2)nc1N1CCOCC1 [Compound 9-4] | < 10 nM | 10 to 100 nM | 10 to 100 nM | – | – | – | – | – |
| CCCNc1nc(Nc2ccc(C(N)=O)cc2)ncc1C(=O)Nc1cccc(N2CCN(C(=O)/C=C/CN(C)C)CC2)c1 [Compound 3-31] | < 10 nM | 100 to 1000 nM | 100 to 1000 nM | – | – | – | – | – |
| CCCNc1nc(Nc2cccc(F)c2)ncc1C#CCCCNC(=O)CN(C)C(=O)/C=C/CN(C)C [Compound 7-24, (E)-4-(Dimethylamino)-N-(2-((5-(2-((3-fluorophenyl)amino)-4-(propylamino)pyrimidin-5-yl)-4-pentyn-1-yl)amino)-2-oxoethyl)-N-methyl-2-butenamide] | < 10 nM | < 10 nM | < 10 nM | – | – | – | – | – |
| C=CC(=O)NCC(=O)Nc1cc(Cl)cc(NC(=O)c2cnc(NCCc3ccncc3)nc2NCCC)c1 [Compound 2-5] | < 10 nM | 10 to 100 nM | 10 to 100 nM | – | – | – | – | – |
| CCCNc1nc(Nc2ccc(C#N)cc2)ncc1C#CCCCNC(=O)[C@@H]1C[C@H](OC)CN1C(=O)/C=C/CN(C)C [Compound 7-61] | < 10 nM | < 10 nM | < 10 nM | – | – | – | – | – |
| CCCNc1nc(Nc2ccc(C(N)=O)cc2)ncc1C(=O)Nc1cccc(NC(=O)[C@H](C)N(C)C(=O)/C=C/CNC(C)(C)C)c1 [Compound 4-4] | < 10 nM | < 10 nM | < 10 nM | – | – | – | – | – |
| C=CC(=O)NCCC(=O)NCCNC(=O)c1cnc(NCCc2ccncc2)nc1NCCC [Compound 2-19] | 10 to 100 nM | > 1000 nM | > 1000 nM | – | – | – | – | – |
| CCCNc1nc(Nc2ccc(C#N)cc2)ncc1C#CCCCNC(=O)[C@@H]1CCCN1C(=O)/C=C/CN(C)C [Compound 7-33, (S,E)-N-(5-(2-((4-Cyanophenyl)amino)-4-(propylamino)pyrimidin-5-yl)-4-pentyn-1-yl)-1-(4-(dimethylamino)-2-butenoyl)pyrrolidine-2-carboxamide] | < 10 nM | < 10 nM | < 10 nM | – | – | – | – | – |
| CCCNc1nc(Nc2ccc3cnccc3c2)ncc1C(=O)NCCCNC(=O)[C@H](C)N(C)C(=O)/C=C/CN(C)C [Compound 6-8] | < 10 nM | < 10 nM | < 10 nM | – | – | – | – | – |
| CCCNc1nc(Nc2cccc(F)c2)ncc1C#CCCCNC(=O)[C@@H]1CCCN1C(=O)/C=C/CN(C)C [Compound 8-15] | 10 to 100 nM | – | – | – | – | – | 100 to 1000 nM | 100 to 1000 nM |
| CCCNc1nc(Nc2ccnc(OC)c2)ncc1C#CCCCNC(=O)[C@@H]1C[C@H](O)CN1C(=O)/C=C/CN(C)C [Compound 9-36] | < 10 nM | < 10 nM | < 10 nM | – | – | – | – | – |
| CCCNc1nc(Nc2cccc(F)c2)ncc1C#CCCCNC(=O)[C@@H]1C[C@@H](F)CN1C(=O)/C=C/CN(C)C [Compound 7-47] | < 10 nM | < 10 nM | < 10 nM | – | – | – | – | – |

Results, then the compound that gave them:

| IC50 [1, 2] | IC50 (Molm-13 cells; [3]) | IC50 (MV4-11 cells; [4]) | IC50 ([1]; FLT3 (WT)) | IC50 (Molm-13 cells; [5]) | IC50 (MV4-11 cells; [6]) | IC50 (Molm-13 cells; Molm-13, 72 hours culture, ATPlite, GI50 per method) | IC50 (MV4-11 cells; MV4-11, 72 hours culture, ATPlite, GI50 per method) | SMILES |
| --- | --- | --- | --- | --- | --- | --- | --- | --- |
| < 10 nM | < 10 nM | < 10 nM | – | – | – | – | – | CCNc1nc(Nc2ccc3cn[nH]c3c2)ncc1C#CCCCNC(=O)[C@H](C)N(C)C(=O)/C=C/CN(C)C [Compound 10-64] |
| – | – | – | < 10 nM | < 10 nM | < 10 nM | – | – | CNc1ncc(C#C[C@@H]2CCC[C@H](NC(=O)[C@H](C)N(C)C(=O)/C=C/CN(C)C)C2)c(NCc2ccccc2)n1 [Compound 21-39] |
| < 10 nM | < 10 nM | < 10 nM | – | – | – | – | – | CC(C)CCNc1nc(Nc2ccc(C#N)cc2)ncc1C#CCCCNC(=O)[C@H](C)N(C)C(=O)/C=C/CN(C)C [Compound 10-13] |
| < 10 nM | < 10 nM | < 10 nM | – | – | – | – | – | C[C@@H](C(=O)NCCCC#Cc1cnc(Nc2ccc(C#N)cc2)nc1N1CCC(F)CC1)N(C)C(=O)/C=C/CN(C)C [Compound 10-41] |
| – | – | – | < 10 nM | 10 to 100 nM | 10 to 100 nM | – | – | CCCNc1nc(Nc2cnc3ccccc3c2)ncc1C#CCCCNC(=O)[C@H](C)N(C)C(=O)/C=C/CN(C)C [Compound 22-3] |
| < 10 nM | 10 to 100 nM | < 10 nM | – | – | – | – | – | COCCCNc1nc(Nc2ccc(F)cc2)ncc1C#CCCCNC(=O)[C@H](C)N(C)C(=O)/C=C/CN(C)C [Compound 10-26] |
| – | – | – | < 10 nM | < 10 nM | < 10 nM | – | – | CCCNc1nc(Nc2ccc3c(F)nn(C)c3c2)ncc1C#CCCCNC(=O)[C@@H]1CCCN1C(=O)/C=C/CN(C)C [Compound 22-59] |
| – | – | – | < 10 nM | < 10 nM | < 10 nM | – | – | CCCNc1nc(Nc2ccc3c(OC)n[nH]c3c2)ncc1C#CCCCNC(=O)[C@H](C)N(C)C(=O)/C=C/CN(C)C [Compound 22-65] |
| < 10 nM | < 10 nM | < 10 nM | – | – | – | – | – | C[C@@H](C(=O)N[C@H]1CCC[C@@H](C#Cc2cnc(Nc3ccnc(F)c3)nc2NC2CC2)C1)N(C)C(=O)/C=C/CN(C)C [Compound 14-2] |
| < 10 nM | 10 to 100 nM | < 10 nM | – | – | – | – | – | COCCCNc1nc(Nc2ccc(F)nc2)ncc1C#CCCCNC(=O)CN(C)C(=O)/C=C/CN(C)C [Compound 10-31] |
| < 10 nM | < 10 nM | < 10 nM | – | – | – | – | – | COCCCNc1nc(Nc2ccc3cn[nH]c3c2)ncc1C#CCCCNC(=O)[C@H](C)N(C)C(=O)/C=C/CN(C)C [Compound 10-65] |
| < 10 nM | < 10 nM | < 10 nM | – | – | – | – | – | CCNc1nc(Nc2ccc(C#N)cc2)ncc1C#CCCCNC(=O)[C@H](C)N(C)C(=O)/C=C/CN(C)C [Compound 10-46] |
| – | – | – | 10 to 100 nM | 10 to 100 nM | 100 to 1000 nM | – | – | CCCNc1nc(Nc2cc(F)c3c(c2)c(N(C)C)nn3C)ncc1C#CCCCNC(=O)[C@H](C)N(C)C(=O)/C=C/CN(C)C [Compound 22-13] |
| < 10 nM | < 10 nM | < 10 nM | – | – | – | – | – | CCOc1nc(Nc2ccc(C#N)cc2)ncc1C#C[C@@H]1CCC[C@H](NC(=O)[C@H](C)N(C)C(=O)/C=C/CN(C)C)C1 [Compound 21-20] |
| < 10 nM | 10 to 100 nM | < 10 nM | – | – | – | – | – | CC[C@@H](C(=O)NCCCC#Cc1cnc(Nc2ccc(F)nc2)nc1NCC(F)(F)F)N(C)C(=O)/C=C/CN(C)C [Compound 10-35] |
| < 10 nM | < 10 nM | < 10 nM | – | – | – | – | – | CNc1nc(Nc2ccc3[nH]ncc3c2)ncc1C#CCCCNC(=O)[C@@H]1CCCN1C(=O)/C=C/CN(C)C [Compound 10-66, (S,E)-N-(5-(2-((1H-Indazol-5-yl)amino)-4-(methylamino)pyrimidin-5-yl)-4-pentyn-1-yl)-1-(4-(dimethylamino)-2-butenoyl)pyrrolidine-2-carboxamide] |

Reference: US9145415B2, “Nitrogen-containing heterocyclic compound or salt thereof” (FUJIFILM Corporation, priority 2012, dated 2015)
